The results in this text go back to patent US10392368B2, “Pyrazolo and triazolo bicyclic compounds as JAK kinase inhibitors” (THERAVANCE BIOPHARMA R&D IP, LLC, priority 2017, dated 2019).

In assay [1] the test system is IL-2 induced pSTAT5 in thymus. In words: Systemic target engagement: murine model of IL-2 induced pSTAT5 induction in thymus. It counts as in vivo, mouse. An excerpt:
IL-2 is an important cytokine underlying the pathophysiology of gastro-intestinal diseases such as […] bowel disease (IBD; Guan and Zhang. Mediators Inflamm, 2017; 4810258). IL-2 binds to cell surface receptors activating members of the Janus family of kinases (JAK), specifically JAK3, which then phosphorylates STAT5 and subsequently activates further transcription pathways. In this model, a dose of IL-2 was delivered systemically to mice to induce the phosphorylation of STAT5 (pSTAT5) which was then measured as the endpoint.
Adult male Balb/c mice from Harlan were used in the assay. Animals were administered test compound via oral gavage (PO, 10 or 30 mg/kg for single dose studies; 10-60 mg/kg for dose response studies) on the afternoon of the day prior to study and then in the morning on the day of study. Two hours after the second PO dose administration, mice were injected intraperitoneally (i.p.) with 100 μl of an appropriate IL-2 dose (for a total of 1-5 μg/mouse depending upon IL-2 batch; R&D Systems). 90-120 minutes after IL-2 insult, thymus samples were harvested.

Another assay has as its target T1, Tyk2 (Homo sapiens, UniProt P29597).
T1 construct: GST; purchased Life Technologies
In words: Biochemical Tyk2 kinase assay (LanthaScreen). The conditions noted are these: read-out: Tyk 2 (pKi) (converted). In outline: (§1)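 Recombinant GST-tagged JAK enzymes with GFP-STAT1 peptide substrate in 50 mM HEPES pH 7.5, 10 mM MgCl2, 1 mM EGTA, 0.01% Brij-35; compounds pre-incubated 1 h, then ATP added, 1 h reaction at ambient temperature. TR-FRET (Tb-anti-pSTAT1 pTyr701, 520/495 nm) after EDTA stop; IC50 by 4-parameter fit, converted to pKi via Cheng-Prusoff.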

The target of a further assay is T2, JAK3 (Homo sapiens, UniProt P52333).
T2 sequence (P52333 1-1124): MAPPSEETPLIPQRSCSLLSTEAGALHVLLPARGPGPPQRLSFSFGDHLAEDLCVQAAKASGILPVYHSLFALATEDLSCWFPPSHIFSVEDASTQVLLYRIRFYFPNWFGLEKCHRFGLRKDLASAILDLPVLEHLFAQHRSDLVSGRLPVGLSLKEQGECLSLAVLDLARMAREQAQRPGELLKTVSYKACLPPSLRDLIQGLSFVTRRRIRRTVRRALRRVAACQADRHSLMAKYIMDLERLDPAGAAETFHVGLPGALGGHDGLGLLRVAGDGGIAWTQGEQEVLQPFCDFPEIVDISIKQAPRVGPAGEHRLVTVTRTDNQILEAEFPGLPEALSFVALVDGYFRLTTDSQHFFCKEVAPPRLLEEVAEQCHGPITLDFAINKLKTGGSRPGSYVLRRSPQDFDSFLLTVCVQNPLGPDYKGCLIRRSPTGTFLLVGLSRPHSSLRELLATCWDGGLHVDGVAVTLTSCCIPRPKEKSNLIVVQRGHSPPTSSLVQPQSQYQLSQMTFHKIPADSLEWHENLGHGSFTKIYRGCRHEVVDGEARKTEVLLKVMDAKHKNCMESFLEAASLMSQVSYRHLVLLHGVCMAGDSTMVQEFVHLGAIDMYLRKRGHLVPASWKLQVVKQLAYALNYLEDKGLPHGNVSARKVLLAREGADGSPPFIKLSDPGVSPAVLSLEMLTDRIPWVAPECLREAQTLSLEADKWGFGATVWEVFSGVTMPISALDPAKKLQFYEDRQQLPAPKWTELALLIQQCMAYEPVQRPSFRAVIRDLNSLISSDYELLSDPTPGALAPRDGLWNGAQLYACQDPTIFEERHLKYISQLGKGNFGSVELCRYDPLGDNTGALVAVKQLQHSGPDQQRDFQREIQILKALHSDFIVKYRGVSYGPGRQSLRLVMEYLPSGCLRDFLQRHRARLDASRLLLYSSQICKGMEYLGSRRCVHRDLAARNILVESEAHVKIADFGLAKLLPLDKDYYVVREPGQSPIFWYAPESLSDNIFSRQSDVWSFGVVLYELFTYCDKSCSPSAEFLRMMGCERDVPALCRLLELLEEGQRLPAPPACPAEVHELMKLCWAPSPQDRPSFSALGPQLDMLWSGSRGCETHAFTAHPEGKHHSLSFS
In words: Biochemical JAK3 kinase assay (LanthaScreen). Also on record: GST; purchased Life Technologies. The note with it: for Ki: read-out: JAK 3 (pKi) (converted); for JAK3 (pKi)-JAK1 (pKi): selectivity: difference of pKi JAK3 and pKi JAK1. The gist of the method:
as §1
On the technique in general: TR-FRET usually uses a lanthanide donor and a delayed reading to cut background.

A further assay concerns the target T3, JAK2 (Homo sapiens, UniProt O60674).
T3 construct: GST; purchased Life Technologies
Kind of assay: Biochemical JAK2 kinase assay (LanthaScreen). The conditions noted are these: read-out: JAK 2 (pKi) (converted). The gist of the method:
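pKi values derive from pIC50 via Cheng-Prusoff, with IC50 from a 4-parameter fit of percent-inhibition TR-FRET data using Tb-anti-pSTAT1 (pTyr701) detection. Compound, GST-JAK2 and GFP-STAT1 substrate were pre-incubated 1 h, then ATP started a 1 h ambient reaction (HEPES pH 7.5, 10 mM MgCl2, 1% DMSO).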

T3 sequence (O60674 whole entry): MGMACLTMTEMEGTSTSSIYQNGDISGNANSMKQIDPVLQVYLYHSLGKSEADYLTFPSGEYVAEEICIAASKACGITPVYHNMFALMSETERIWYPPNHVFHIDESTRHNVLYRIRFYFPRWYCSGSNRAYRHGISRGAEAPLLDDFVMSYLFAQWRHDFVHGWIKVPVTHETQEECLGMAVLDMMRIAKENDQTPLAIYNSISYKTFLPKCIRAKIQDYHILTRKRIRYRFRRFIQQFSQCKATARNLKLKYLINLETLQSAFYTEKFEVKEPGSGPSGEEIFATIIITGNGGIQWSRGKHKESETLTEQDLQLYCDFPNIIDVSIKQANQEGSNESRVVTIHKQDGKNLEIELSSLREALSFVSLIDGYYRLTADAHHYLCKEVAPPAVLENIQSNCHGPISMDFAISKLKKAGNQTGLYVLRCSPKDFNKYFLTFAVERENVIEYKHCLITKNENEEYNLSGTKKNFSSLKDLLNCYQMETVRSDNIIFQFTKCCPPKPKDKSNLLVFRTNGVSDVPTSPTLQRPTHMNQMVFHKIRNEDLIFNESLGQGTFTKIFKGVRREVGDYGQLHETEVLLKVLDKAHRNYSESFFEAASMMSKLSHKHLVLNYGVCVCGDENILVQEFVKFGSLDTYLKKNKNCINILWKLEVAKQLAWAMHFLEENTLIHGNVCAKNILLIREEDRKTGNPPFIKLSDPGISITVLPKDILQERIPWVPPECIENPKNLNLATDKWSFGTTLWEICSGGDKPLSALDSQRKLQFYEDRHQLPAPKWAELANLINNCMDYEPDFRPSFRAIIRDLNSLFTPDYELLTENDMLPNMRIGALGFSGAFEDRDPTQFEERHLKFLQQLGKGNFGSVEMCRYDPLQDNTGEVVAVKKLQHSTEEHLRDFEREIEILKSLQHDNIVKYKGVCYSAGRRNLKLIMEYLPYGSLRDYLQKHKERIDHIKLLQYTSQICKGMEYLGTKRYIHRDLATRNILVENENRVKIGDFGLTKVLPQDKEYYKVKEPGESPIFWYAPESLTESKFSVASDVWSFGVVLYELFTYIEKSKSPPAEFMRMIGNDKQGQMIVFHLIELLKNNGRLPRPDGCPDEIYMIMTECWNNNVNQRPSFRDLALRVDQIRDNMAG
T1 sequence (P29597 whole entry): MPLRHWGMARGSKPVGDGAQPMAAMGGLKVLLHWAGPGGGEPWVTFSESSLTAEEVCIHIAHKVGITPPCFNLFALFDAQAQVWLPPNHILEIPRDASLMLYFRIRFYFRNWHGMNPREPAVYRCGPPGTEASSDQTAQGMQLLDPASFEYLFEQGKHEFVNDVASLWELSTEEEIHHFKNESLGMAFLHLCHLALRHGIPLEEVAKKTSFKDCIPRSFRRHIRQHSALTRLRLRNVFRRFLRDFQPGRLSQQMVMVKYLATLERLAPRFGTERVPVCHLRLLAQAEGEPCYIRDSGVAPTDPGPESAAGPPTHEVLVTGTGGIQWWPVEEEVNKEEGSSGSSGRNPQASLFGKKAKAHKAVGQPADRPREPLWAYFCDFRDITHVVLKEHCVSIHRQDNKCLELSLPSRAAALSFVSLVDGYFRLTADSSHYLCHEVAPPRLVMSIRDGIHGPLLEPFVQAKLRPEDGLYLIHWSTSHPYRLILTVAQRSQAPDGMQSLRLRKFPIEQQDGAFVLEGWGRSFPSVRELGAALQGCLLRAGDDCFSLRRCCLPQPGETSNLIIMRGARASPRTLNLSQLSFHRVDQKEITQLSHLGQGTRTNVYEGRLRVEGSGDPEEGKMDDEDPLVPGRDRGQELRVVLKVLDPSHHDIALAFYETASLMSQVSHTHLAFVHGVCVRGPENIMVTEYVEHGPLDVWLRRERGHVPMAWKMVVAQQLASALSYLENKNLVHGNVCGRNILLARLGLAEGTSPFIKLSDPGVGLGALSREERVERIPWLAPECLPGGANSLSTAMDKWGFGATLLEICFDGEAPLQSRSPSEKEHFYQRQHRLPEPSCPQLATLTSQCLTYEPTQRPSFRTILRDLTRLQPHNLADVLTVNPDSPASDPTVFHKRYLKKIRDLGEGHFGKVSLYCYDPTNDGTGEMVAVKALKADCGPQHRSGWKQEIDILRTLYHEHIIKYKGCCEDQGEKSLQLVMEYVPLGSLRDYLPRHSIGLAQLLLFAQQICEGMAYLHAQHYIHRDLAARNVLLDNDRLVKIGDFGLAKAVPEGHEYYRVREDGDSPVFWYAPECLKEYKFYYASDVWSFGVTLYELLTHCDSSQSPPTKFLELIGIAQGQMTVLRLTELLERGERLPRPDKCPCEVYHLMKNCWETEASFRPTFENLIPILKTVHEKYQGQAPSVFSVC

Take `C=CC(=O)N1CC[C@H](Oc2cc(-c3ccc(O)c(Cl)c3)cc3[nH]ncc23)C1` [Compound 2, (S)-1-(3-((6-(3-chloro-4-hydroxyphenyl)-1H-indazol-4-yl)oxy)pyrrolidin-1-yl)prop-2-en-1-one]: the “inhibition of IL-2 induced pSTAT5 in thymus compared to vehicle” value (shortened to “inhibition … compared to vehicle”) in assay [1] (PO, 10, 30 and 60 mg/kg) was “no significant inhibition”. The Ki at Tyk2 is over 100 nM; on JAK3, under 0.1 nM; at JAK2, over 100 nM. Also, on JAK3, the “JAK3 (pKi)-JAK1 (pKi)” value is reported as “A (a value of 3 or above)”.

For the molecule `C=CC(=O)N1CC(C(C)(C)Oc2cc(-c3ccc(O)cc3)nc3[nH]ncc23)C1` [Compound 20, 1-(3-(2-((6-(4-hydroxyphenyl)-1H-pyrazolo[3,4-b]pyridin-4-yl)oxy)propan-2-yl)azetidin-1-yl)prop-2-en-1-one], the Ki on Tyk2 is over 100 nM; at JAK3 it was under 0.1 nM; at JAK2, over 100 nM. Besides, the “JAK3 (pKi)-JAK1 (pKi)” value at JAK3 was “A (a value of 3 or above)”.

As to `CN(C)C/C=C/C(=O)N1CC(COc2cc(-c3ccc(O)c(F)c3)cc3[nH]ncc23)C1` [Compound 5, (E)-4-(dimethylamino)-1-(3-(((6-(3-fluoro-4-hydroxyphenyl)-1H-indazol-4-yl)oxy)methyl)azetidin-1-yl)but-2-en-1-one], in assay [1] (PO, 30 mg/kg), the “inhibition … compared to vehicle” value is “no significant inhibition”. Moreover, the Ki at Tyk2 is over 100 nM; at JAK3, under 0.1 nM; on JAK2 it was 10 to 100 nM. Also, the “JAK3 (pKi)-JAK1 (pKi)” value at JAK3 is “A (a value of 3 or above)”.

In the case of `C=CC(=O)N1CC(C)(COc2nc(-c3ccc(O)c(F)c3)nc3[nH]ncc23)C1` [Compound 21, 1-(3-(((6-(3-fluoro-4-hydroxyphenyl)-1H-pyrazolo[3,4-d]pyrimidin-4-yl)oxy)methyl)-3-methylazetidin-1-yl)prop-2-en-1-one], the Ki on Tyk2 was over 100 nM; at JAK3, under 0.1 nM; at JAK2, over 100 nM. At JAK3, the “JAK3 (pKi)-JAK1 (pKi)” value is on record as “A (a value of 3 or above)”.

Regarding `C=CC(=O)N1CC(COc2nc(-c3ccc(O)cc3)nc3[nH]ncc23)C1` [Compound 4, 1-(3-(((6-(4-hydroxyphenyl)-1H-pyrazolo[3,4-d]pyrimidin-4-yl)oxy)methyl)azetidin-1-yl)prop-2-en-1-one], the “inhibition … compared to vehicle” value in assay [1] (PO, 30 mg/kg) was “no significant inhibition”. Moreover, the Ki is over 100 nM at Tyk2, under 0.1 nM at JAK3 and over 100 nM on JAK2. Moreover, the “JAK3 (pKi)-JAK1 (pKi)” value on JAK3 is on record as “A (a value of 3 or above)”.

`CN(C)C/C=C/C(=O)N1CCC(C)(Oc2cc(-c3ccc(O)cc3)cc3[nH]ncc23)CC1` [Compound 9, (E)-4-(dimethylamino)-1-(4-((6-(4-hydroxyphenyl)-1H-indazol-4-yl)oxy)-4-methylpiperidin-1-yl)but-2-en-1-one]: on JAK3, the Ki is 0.1 to 1 nM and the “JAK3 (pKi)-JAK1 (pKi)” value is “A (a value of 3 or above)”.

Regarding `C=CC(=O)N1CCO[C@@H](C(=O)Nc2cc(-c3ccc(O)cc3)cc3[nH]ncc23)C1` [Compound 6, (R)-4-acryloyl-N-(6-(4-hydroxyphenyl)-1H-indazol-4-yl)morpholine-2-carboxamide], the “inhibition … compared to vehicle” value in assay [1] (PO, 10 mg/kg) was “no significant inhibition”. For the same molecule, the Ki on Tyk2 was over 100 nM; at JAK3, under 0.1 nM; at JAK2, 10 to 100 nM. In addition, the “JAK3 (pKi)-JAK1 (pKi)” value at JAK3 is reported as “A (a value of 3 or above)”.

`C=CC(=O)N1CC(CC)(COc2cc(-c3ccc(O)cc3)nc3[nH]ncc23)C1` [Compound 22, 1-(3-ethyl-3-(((6-(4-hydroxyphenyl)-1H-pyrazolo[3,4-b]pyridin-4-yl)oxy)methyl)azetidin-1-yl)prop-2-en-1-one]: the Ki on Tyk2 was over 100 nM; on JAK3 it was under 0.1 nM; at JAK2 it was over 100 nM. For the same molecule, the “JAK3 (pKi)-JAK1 (pKi)” value on JAK3 is “A (a value of 3 or above)”.

Consider `CN(C)C/C=C/C(=O)N1CC(C#N)(COc2cc(-c3ccc(O)c(F)c3)cc3[nH]ncc23)C1` [Compound 8, (E)-1-(4-(dimethylamino)but-2-enoyl)-3-(((6-(3-fluoro-4-hydroxyphenyl)-1Hindazol-4-yl)oxy)methyl)azetidine-3-carbonitrile], for which the “inhibition … compared to vehicle” value in assay [1] (PO, 30 mg/kg) was “no significant inhibition”. For the same molecule, the values for the Ki at Tyk2, at JAK3 and at JAK2 were over 100 nM, under 0.1 nM and 10 to 100 nM, respectively. The “JAK3 (pKi)-JAK1 (pKi)” value on JAK3 is recorded as “A (a value of 3 or above)”.

For the molecule `C=CC(=O)N1CC[C@H](COc2cc(-c3ccc(O)cc3)cc3[nH]ncc23)C1` [Compound 7, (S)-1-(3-(((6-(4-hydroxyphenyl)-1H-indazol-4-yl)oxy)methyl)pyrrolidin-1-yl)prop-2-en-1-one], the “inhibition … compared to vehicle” value in assay [1] (PO, 10 mg/kg) is on record as “no significant inhibition”. Also, the Ki at Tyk2 is over 100 nM; on JAK3, 0.1 to 1 nM; at JAK2, 10 to 100 nM. Besides, the “JAK3 (pKi)-JAK1 (pKi)” value at JAK3 is “A (a value of 3 or above)”.

As to `CN(C)C/C=C/C(=O)N1CC(COc2cc(-c3ccc(O)cc3)cc3[nH]ncc23)C1` [Compound 1, (E)-4-(dimethylamino)-1-(3-(((6-(4-hydroxyphenyl)-1H-indazol-4-yl)oxy)methyl)azetidin-1-yl)but-2-en-1-one], in assay [1] (PO, 10, 30, 60 and 100 mg/kg), the “inhibition … compared to vehicle” value is reported as “no significant inhibition”. Also, the Ki is over 100 nM at Tyk2, under 0.1 nM on JAK3 and 10 to 100 nM at JAK2. Also, on JAK3, the “JAK3 (pKi)-JAK1 (pKi)” value was “A (a value of 3 or above)”.

In the case of `CN(C)C/C=C/C(=O)N1CC(C(C)(C)Oc2cc(-c3ccc(O)c(Cl)c3)cc3[nH]ncc23)C1` [Compound 3, (E)-1-(3-(2-((6-(3-chloro-4-hydroxyphenyl)-1H-indazol-4-yl)oxy)propan-2-yl)azetidin-1-yl)-4-(dimethylamino)but-2-en-1-one], the “inhibition … compared to vehicle” value in assay [1] (PO, 30 and 100 mg/kg) was “no significant inhibition”. For the same molecule, the Ki at Tyk2 was over 100 nM; on JAK3 it was 0.1 to 1 nM; at JAK2, over 100 nM. In addition, the “JAK3 (pKi)-JAK1 (pKi)” value at JAK3 is recorded as “A (a value of 3 or above)”.
